Assay results taken from patent US4393225A, “AI-77 Compounds and pharmaceutically acceptable salts thereof” (Asahi Kasei Kogyo Kabushiki Kaisha, priority 1979, dated 1983).
Where two headings read alike, the source gives them in different places.

Test system: ulcer
Test: Anti-ulcer test (restraint and water immersion ulcer in rats, i.p.)
Assay type: in vivo, Male Wistar rats
Conditions: Rattus norvegicus, ip, read-out: % Inhibition of Ulcer
Experimental: The anti-ulcer and anti-edema activity of the compounds was evaluated in efficacy tests described below.
Male Wistar rats weighing about 150 g on average were not fed for 24 hours before the test. Then a solution or suspension of a predetermined concentration of the test compound in physiological saline was administered to them intraperitoneally. One hour after the administration,each rat was restrained in a net cage and submerged in a water both (21° C.) from the tail to xiphistrenun for 6 hours. Test animals were then killed (by dislocation of the cervical vertebrae), the stomach was removed and incised along the curvatura ventriculi major, and the inside wall of the stomach was pathologically examined under microscopic observation. Rats in which the occurrence of an ulceration was substantially not observed were rated O, while others were rated 0.5, 1, 2 or 3, depending on the severity of the ulcer development. The percent inhibition of ulcer was calculated by the following formula: [formula]

SMILES	inhibition in vivo at 50 mg/kg (50 mg/kg i.p.) [%]	also measured
CCCCOC(C(=O)NC(CC(C)C)C1Cc2cccc(OC(C)=O)c2C(=O)O1)C(O)C(CC(N)=O)NCC (stereo not shown) [VII-18-1]		inhibition in vivo at 25 mg/kg (25 mg/kg i.p.): 66%
CCCCCc1ccc(CNC(=O)CC(N)C(O)C(O)C(=O)NC(CC(C)C)C2Cc3cccc(O)c3C(=O)O2)cc1 (stereo not shown) [VII-1-40]		inhibition in vivo at 25 mg/kg (25 mg/kg i.p.): 94%
CC(C)CC(NC(=O)C(OC(=O)C(C)C)C1C=CC(=O)O1)C1Cc2cccc(O)c2C(=O)O1 (stereo not shown) [IVa-1-4]	44	
CCCCCCCCC=CCCCCCCCC(=O)NC1CC(=O)OC1C(OC(C)=O)C(=O)NC(CC(C)C)C1Cc2cccc(O)c2C(=O)O1 (stereo not shown) [IIIa-2-5]	33	
CCCCCCCCCCCCOc1cccc2c1C(=O)OC(C(CC(C)C)NC(=O)C(O)C1OC(=O)CC1NC(C)=O)C2 (stereo not shown) [IIIa-5-9]	33	
CC(C)CC(NC(=O)C(O)C1OC(=O)CC1NC(=O)C1CCCCC1=O)C1Cc2cccc(O)c2C(=O)O1 (stereo not shown) [IIIa-1-33]	66	
CC(=O)Oc1cccc2c1C(=O)OC(C(CC(C)C)NC(=O)C(O)C(O)C(CC(N)=O)NCC(C)C)C2 (stereo not shown) [VII-13-2]		inhibition in vivo at 25 mg/kg (25 mg/kg i.p.): 83%
CCCCCCCCCCCCCCCCCCOC(C(=O)NC(CC(C)C)C1Cc2cccc(O)c2C(=O)O1)C1OC(=O)CC1N (stereo not shown) [IIIa-16-3]	56	
CCCCOC(C(=N)NC(CC(C)C)C1Cc2cccc(OC)c2C(=O)O1)C(O)C(N)CC(=O)O (stereo not shown) [Vb-7-1]	72	
CCCCCCCCNC(CC(N)=O)C(O)C(O)C(=O)NC(CC(C)C)C1Cc2cccc(O)c2C(=O)O1 (stereo not shown) [VII-10-3]		inhibition in vivo at 25 mg/kg (25 mg/kg i.p.): 94%
CNC(=O)CC(N)C(O)C(O)C(=O)NC(CC(C)C)C1Cc2cccc(O)c2C(=O)O1 (stereo not shown) [VII-1-2]		inhibition in vivo at 25 mg/kg (25 mg/kg i.p.): 100%
CCCC(=O)Oc1cccc2c1C(=O)OC(C(CC(C)C)NC(=O)C(OC(C)=O)C1OC(=O)CC1N)C2 (stereo not shown) [IIIa-11-6]	56	
CCCCCCCCCCCCCCCCCC(=O)Oc1cccc2c1C(=O)OC(C(CC(C)C)NC(=N)C(O)C(O)C(N)CC(=O)O)C2 (stereo not shown) [Vb-4-2]	56	
CCOc1cccc2c1C(=O)OC(C(CC(C)C)NC(=O)C(OCC)C1OC(=O)CC1NC(=O)CC(C)C)C2 (stereo not shown) [IIIa-7-3]	33	
CCCOC(C(=O)NC(CC(C)C)C1Cc2cccc(OCC)c2C(=O)O1)C1OC(=O)CC1NC(=O)C(Cl)(Cl)Cl (stereo not shown) [IIIa-7-17]	33	
CC(C)CCOc1cccc2c1C(=O)OC(C(CC(C)C)NC(=O)C(O)C1OC(=O)CC1N)C2 (stereo not shown) [IIIa-13-4]	100	
CCCCOc1cccc2c1C(=O)OC(C(CC(C)C)NC(=N)C(OCCCC)C(O)C(N)CC(=O)O)C2 (stereo not shown) [Vb-7-2]	66	
CC(C)CC(NC(=O)C(O)C1OC(=O)CC1NC(=O)C1CC1)C1Cc2cccc(O)c2C(=O)O1 (stereo not shown) [IIIa-1-18]		inhibition in vivo at 50 mg/kg: 66%
CCC(=O)OC(C(=O)NC(CC(C)C)C1Cc2cccc(OC)c2C(=O)O1)C1OC(=O)CC1NC(C)=O (stereo not shown) [IIIa-6-12]	33	
CC(C)CC(NC(=O)C(O)C1OC(=O)CC1NC(=O)c1ccco1)C1Cc2cccc(O)c2C(=O)O1 (stereo not shown) [IIIa-1-22]	66	

SMILES	inhibition in vivo at 50 mg/kg (50 mg/kg i.p.) [%]	also measured
CCNC(=O)CC(N)C(O)C(O)C(=O)NC(CC(C)C)C1Cc2cccc(O)c2C(=O)O1 (stereo not shown) [VII-1-3]		inhibition in vivo at 25 mg/kg (25 mg/kg i.p.): 100%
CC(C)CC(NC(=O)C(O)C1C=CC(=O)O1)C1Cc2cccc(OCC3CCCO3)c2C(=O)O1 (stereo not shown) [IVa-4-14]	33	
CCCC=Cc1ccc(C(=O)NC2CC(=O)OC2C(O)C(=O)NC(CC(C)C)C2Cc3cccc(OCC)c3C(=O)O2)cc1 (stereo not shown) [IIIa-5-74]	44	
CCOc1cccc2c1C(=O)OC(C(CC(C)C)NC(=O)C(OC(C)=O)C1OC(=O)CC1N)C2 (stereo not shown) [IIIa-14-1]	56	
CC(=O)Oc1cccc2c1C(=O)OC(C(CC(C)C)NC(=O)C(OC(C)=O)C1OC(=O)CC1NC(=O)c1ccc(C)cc1)C2 (stereo not shown) [IIIa-3-8]	33	
CC(C)CC(NC(=O)C(O)C1OC(=O)CC1N)C1Cc2cccc(OCc3ccco3)c2C(=O)O1 (stereo not shown) [IIIa-13-13]	89	
C#CCNC1CC(=O)OC1C(O)C(=O)NC(CC(C)C)C1Cc2cccc(O)c2C(=O)O1 (stereo not shown) [IIIa-18-46]	100	
COC1CCC(C(=O)NC2CC(=O)OC2C(O)C(=O)NC(CC(C)C)C2Cc3cccc(O)c3C(=O)O2)CC1 (stereo not shown) [IIIa-1-73]	66	
CCCCCCCC(=O)Oc1cccc2c1C(=O)OC(C(CC(C)C)NC(=O)C(O)C1C=CC(=O)O1)C2 (stereo not shown) [IVa-3-7]	33	
CCCCNC1CC(=O)OC1C(O)C(=O)NC(CC(C)C)C1Cc2cccc(OCCCBr)c2C(=O)O1 (stereo not shown) [IIIa-22-92]	94	
CC(=O)Oc1cccc2c1C(=O)OC(C(CC(C)C)NC(=O)C(O)C1OC(=O)CC1NC(=O)c1ccc(OCCC(C)C)cc1)C2 (stereo not shown) [IIIa-4-8]	33	
CCCCCC(=O)Oc1cccc2c1C(=O)OC(C(CC(C)C)NC(=O)C(O)C1C=CC(=O)O1)C2 (stereo not shown) [IVa-3-5]	33	
CCCCCCCCC=CCCCCCCCCOc1cccc2c1C(=O)OC(C(CC(C)C)NC(=O)C(O)C1C=CC(=O)O1)C2 (stereo not shown) [IVa-4-7]	33	
CNC1CC(=O)OC1C(OC(C)=O)C(=O)NC(CC(C)C)C1Cc2cccc(OC(C)=O)c2C(=O)O1 (stereo not shown) [IIIa-29-1]	56	
CCCCCCC(=O)OC(C(=O)NC(CC(C)C)C1Cc2cccc(O)c2C(=O)O1)C1C=CC(=O)O1 (stereo not shown) [IVa-1-8]	33	
COC(C(=N)NC(CC(C)C)C1Cc2cccc(OC(C)=O)c2C(=O)O1)C(O)C(N)CC(=O)O (stereo not shown) [Vb-9-1]	66	
CCCCCCCCCCCCCCCCCCNC1CC(=O)OC1C(OCCCC)C(=O)NC(CC(C)C)C1Cc2cccc(O)c2C(=O)O1 (stereo not shown) [IIIa-25-3]	56	
COC(=O)c1ccc(C(=O)NC2CC(=O)OC2C(O)C(=O)NC(CC(C)C)C2Cc3cccc(O)c3C(=O)O2)cc1 (stereo not shown) [IIIa-1-50]	66	
CCCCCCCCC=CCCCCCCCC(=O)Oc1cccc2c1C(=O)OC(C(CC(C)C)NC(=O)C(O)C1C=CC(=O)O1)C2 (stereo not shown) [IVa-3-12]	33	
CCOc1cccc2c1C(=O)OC(C(CC(C)C)NC(=O)C(O)C1OC(=O)CC1NC(=O)CC(C)C)C2 (stereo not shown) [IIIa-5-2]	44	

SMILES	inhibition in vivo at 50 mg/kg (50 mg/kg i.p.) [%]	also measured
CNC(CC(N)=O)C(O)C(OC(C)=O)C(=O)NC(CC(C)C)C1Cc2cccc(O)c2C(=O)O1 (stereo not shown) [VII-20-1]		inhibition in vivo at 25 mg/kg (25 mg/kg i.p.): 89%
CCCCOC(C(=O)NC(CC(C)C)C1Cc2cccc(OC)c2C(=O)O1)C1OC(=O)CC1N (stereo not shown) [IIIa-15-1]	56	
CC(C)CC(NC(=O)C(O)C1OC(=O)CC1NC(=O)C(C)C)C1Cc2cccc(O)c2C(=O)O1 (stereo not shown) [IIIa-1-4]	66	
Cc1ccc(COc2cccc3c2C(=O)OC(C(CC(C)C)NC(=O)C(O)C2OC(=O)CC2N)C3)cc1 (stereo not shown) [IIIa-13-21]	89	
CC(C)CC(NC(=O)C(O)C1OC(=O)CC1NCc1ccccc1)C1Cc2cccc(O)c2C(=O)O1 (stereo not shown) [IIIa-18-14]	89	
CNC1CC(=O)OC1C(OC)C(=O)NC(CC(C)C)C1Cc2cccc(OC(C)=O)c2C(=O)O1 (stereo not shown) [IIIa-35-1]	56	
CCOc1cccc2c1C(=O)OC(C(CC(C)C)NC(=O)C(O)C(O)C(N)CC(=O)Nc1ccc(C)cc1)C2 (stereo not shown) [VII-5-4]		inhibition in vivo at 25 mg/kg (25 mg/kg i.p.): 78%
CCOc1cccc2c1C(=O)OC(C(CC(C)C)NC(=O)C(O)C1OC(=O)CC1NC(=O)C(C)=C(C)Br)C2 (stereo not shown) [IIIa-5-77]	44	
CC(C)CC(NC(=O)C(O)C(O)C(CC(N)=O)NC(=O)C(C)C)C1Cc2cccc(O)c2C(=O)O1 (stereo not shown) [VII-28-2]		inhibition in vivo at 25 mg/kg: 78%
CCC(=O)COc1cccc2c1C(=O)OC(C(CC(C)C)NC(=O)C(O)C1OC(=O)CC1NC(=O)C(Cl)(Cl)Cl)C2 (stereo not shown) [IIIa-5-125]	33	
COC(C(=N)NC(CC(C)C)C1Cc2cccc(OC(C)=O)c2C(=O)O1)C(O)C(CC(=O)O)NC(C)C (stereo not shown) [Vb-27-2]	66	
COc1cccc2c1C(=O)OC(C(CC(C)C)NC(=O)C(O)C1C=CC(=O)O1)C2 (stereo not shown) [IVa-4-1]	44	
CC(C)CC(NC(=O)C(O)C(O)C(N)CC(=O)NCCCC1CCCC1)C1Cc2cccc(O)c2C(=O)O1 (stereo not shown) [VII-1-34]		inhibition in vivo at 25 mg/kg (25 mg/kg i.p.): 83%
CCCCOc1cccc2c1C(=O)OC(C(CC(C)C)NC(=O)C(OCCCC)C1OC(=O)CC1NC)C2 (stereo not shown) [IIIa-33-3]	56	
CCOc1cccc2c1C(=O)OC(C(CC(C)C)NC(=O)C(O)C1OC(=O)CC1NC(C)=O)C2 (stereo not shown) [IIIa-5-1]	44	
CC(C)CC(NC(=O)C(O)C1OC(=O)CC1NC(=O)c1ccc2ccccc2c1)C1Cc2cccc(O)c2C(=O)O1 (stereo not shown) [IIIa-1-15]	44	
CC(C)CC(NC(=O)C(O)C(O)C(N)CC(=O)NC1CC1)C1Cc2cccc(O)c2C(=O)O1 (stereo not shown) [VII-1-11]		inhibition in vivo at 25 mg/kg (25 mg/kg i.p.): 94%
CCOc1cccc2c1C(=O)OC(C(CC(C)C)NC(=O)C(OC(C)=O)C1OC(=O)CC1NC(=O)CC(C)C)C2 (stereo not shown) [IIIa-6-3]	33	
